What all share (type): physicochemical
The nature of series [1]: solubility in water/alcohol solutions. Conditions: water/alcohol solutions of the abovementioned concentrations.
Series [2] can be described thus: desorption of applied medicine from porous media to potable water. As to conditions: 50 ml of potable water.
A short description of series [3]: quantity of medicine that can be applied on unit area of porous media with a jet printer. Conditions: fiberglass membrane made by Algstrem.
Description: Using a jet printer with rechargeable cartridges the solution was applied on a 236.5 cm^2 specimen of media made from cellulose filtering material (size 21.5*1 1 cm^2, format Letter) with different printing qualities in dpi and different area filling densities. […] Following that the quantity of acetylsalicylic acid applied per unit area was analyzed depending on software controlled printing quality (in dpi). Using the specially plotted graduation curve the required printing densities in dpi were selected for applying 130 mg per 0.25 cm^2, or 520 mg/cm^2. The specimen was dried in a hot air flow for guaranteed removal of the water/alcohol solvent and packaged in a polymer container protecting the specimen from direct sunlight. Then the specimen was removed from the container and placed in a glass with water.
A similar procedure was conducted for d, 1-2-(4-isobutylphenyl)-propionic acid (the active pharmaceutical substance of the Ibuprofen medicine) and a fiberglass membrane made by Algstrem, USA, used in immunology.
Series [4] can be described thus: stability of medicine during application with a piezoelectric apparatus (chromatography). As to conditions: heat from piezoelectric apparatus above 40 degrees Celsius. The source says: Initially, at S110, a head 216 of a printing device 208 is dismantled. The head 216 of the printing device 208 may include a plurality of head nozzles 218 operative to dispense a liquid therefrom. The printing device 208 may be a piezoelectric apparatus, or any other suitable apparatus. The printing device 208 may accurately (e.g., within 5% of a nominal range) output a range of drop sizes (e.g., 2-80 picolitres) at a relatively high dispensing frequency (e.g., 1000-3000 drops per second). The printing device 208 may operate based on an inverse piezoelectric effect, whereby a piezoelectric element is deformed under the influence of an electric field. […] In one or more embodiments, the printing device 208 may include a thermo sensor 230 to control the temperature of the head 216 to avoid heating the medicine to a temperature that results in decomposition of the medicine. […] It is noted that the ranges of acceptable temperatures may be analyzed, as cooling may affect viscosity of the medicine. […] The inventors note that, per their research on the use of vitamin C in a piezoelectric apparatus, during application of the medicine to the porous media, heat resulting from the use of the piezoelectric apparatus occurred above 40 degrees Celsius, as vitamin C was destroyed and its presence was not detected during chromatography. […]

Consider `CC(=O)Oc1ccccc1C(=O)O` [acetylsalicylic acid], for which the “solubility in water/alcohol solutions” value in series [1] is on record as about 100%.
In the case of `CC(C)Cc1ccc(C(C)C(=O)O)cc1` (centres unmarked) [d, 1-2-(4-isobutylphenyl)-propionic acid], the “quantity desorbed to potable water” value in series [2] (1 cm^2 fiberglass membrane (Algstrem), 300±2 mg applied) is recorded as 246±2. For the same molecule, the “share of applied quantity desorbed to potable water” value in series [2] (1 cm^2 fiberglass membrane) is listed as 82%. Moreover, in series [3], the “possible quantity that can be applied on 1 cm^2 (unit area)” value worked out at 300 ± 2 mg.
As to `O=C1O[C@H]([C@@H](O)CO)C(O)=C1O` [vitamin C], the “stability during application to porous media with piezoelectric apparatus” value in series [4] was “destroyed”.
